In patent US9834566B2, “Pyrazolopyrimidine macrocycles as inhibitors of human immunodeficiency virus replication” (priority 2014, dated 2017):

The compounds below were run on recombinant NL-RLuc virus (NL4-3 with Renilla Luciferase gene) (assay: Inhibition of HIV replication (NL-RLuc luciferase reporter virus in MT-2 cells)). Conditions: NL43, 120 h.
Type: cell-based
From the text: Inhibition of HIV Replication:
A recombinant NL-RLuc proviral clone was constructed in which a section of the nef gene from NL4-3 was replaced with the Renilla Luciferase gene. This virus is fully infectious and can undergo multiple cycles of replication in cell culture. In addition, the luciferous reporter provides a simple and easy method for quantitating the extent of virus growth and consequently, the antiviral activity of test compounds. The plasmid pNLRLuc contains the proviral NL-Rluc DNA cloned into pUC18 at the PvuII site. The NL-RLuc virus was prepared by transfection of 293T cells with the plasmid pNLRLuc. Transfections were performed using the LipofectAMINE PLUS kit from Invitrogen (Carlsbad, Calif.) according to the manufacturer and the virus generated was titered in MT-2 cells. For susceptibility analyses, the titrated virus was used to infect MT-2 cells in the presence of compound, and after 5 days of incubation, cells were processed and quantitated for virus growth by the amount of expressed luciferase. Assay media was RPMI 1640 supplemented with 10% heat inactivated fetal bovine serum (FBS), 100 units/ml penicillin G/100 units/ml streptomycin, 10 mM HEPES buffer pH 7.55 and 2 mM L-glutamine. The results from at least 2 experiments were used to calculate the EC50 values. Luciferase was quantitated using the Dual Luciferase kit from Promega (Madison, Wis.). Susceptibility of viruses to compounds was determined by incubation in the presence of serial dilutions of the compound. The 50% effective concentration (EC50) was calculated by using the exponential form of the median effect equation where (Fa)=1/[1+(ED50/drug conc.)^m] (Johnson V A, Byington R T. Infectivity Assay. In Techniques in HIV Research. ed. Aldovini A, Walker B D. 71-76. New York: Stockton Press. 1990).

Structure (SMILES) | EC50
Cc1ccc2cc1OCc1cccc(c1)COc1cc(F)ccc1-c1cccc(c1)-c1cc3nc(C)c([C@H](OC(C)(C)C)C(=O)O)c-2n3n1 [Example 15, (2S)-2-(tert-Butoxy)-2-{26-fluoro-7,13-dimethyl-15,23-dioxa-3,4,6-triazaheptacyclo [28.3.1.1^2,^5.1^10,^14.1^17,^21.0^4,^9.0^24,^29]heptatriaconta-1(34),2,5(37),6,8,10,12,14(36), 17(35),18,20,24(29),25,27,30,32-hexadecaen-8-yl}acetic acid] | 301 nM
Cc1ccc2cc1OCCCCCCOc1cc(F)ccc1-c1cccc(c1)-c1cc3nc(C)c([C@H](OC(C)(C)C)C(=O)O)c-2n3n1 [Example 16, (2S)-2-(tert-Butoxy)-2-{25-fluoro-7,13-dimethyl-15,22-dioxa-3,4,6-triazahexacyclo [27.3.1.1^2,^5.1^10,^14.0^4,^9.0^23,^28]pentatriaconta-1(33),2,5(35),6,8,10,12,14(34), 23(28),24,26,29,31-tridecaen-8-yl}acetic acid] | 780 nM
Cc1ccc2cc1OCCOCCOc1cc(F)ccc1-c1cccc(c1)-c1cc3nc(C)c([C@H](OC(C)(C)C)C(=O)O)c-2n3n1 [Example 17, (2S)-2-(tert-Butoxy)-2-{24-fluoro-7,13-dimethyl-15,18,21-trioxa-3,4,6-triazahexacyclo [26.3.1.1^2,^5.1^10,^14.0^4,^9.0^22,^27]tetratriaconta-1(32),2,5(34),6,8,10,12,14(33), 22(27),23,25,28,30-tridecaen-8-yl}acetic acid] | 289 nM
Cc1ccc2cc1OCCN(Cc1ccccc1)CCOc1cc(F)ccc1-c1cccc(c1)-c1cc3nc(C)c([C@H](OC(C)(C)C)C(=O)O)c-2n3n1 [Example 18, (2S)-2-(tert-Butoxy)-2-{18-fluoro-4-methyl-21,29,33-trioxa-5,7,8-triazaoctacyclo [28.6.2.1^6,^9.1^10,^14.1^23,^27.0^2,^7.0^15,^20.0^34,^38]hentetraconta-1(36),2,4,6(41),8,10(40),11,13, 15(20),16,18,23,25,27(39),34,37-hexadecaen-3-yl}acetic acid] | 1140 nM
C=C1COc2cc(F)ccc2-c2cccc(c2)-c2cc3nc(C)c([C@H](OC(C)(C)C)C(=O)O)c(n3n2)-c2ccc(F)cc2OC1 [Example 19, (2S)-2-(tert-butoxy)-2-{13,23-difluoro-7-methyl-18-methylidene-16,20-dioxa-3,4,6-triazahexacyclo[25.3.1.1^2,5.0^4,9.0^10,15.0^21,26]dotriaconta-1(31),2,5(32),6,8,10,12,14,21(26),22,24,27,29-tridecaen-8-yl}acetic acid] | 3590 nM
Cc1ccc2c(c1)OCCCCCOc1cc(F)ccc1-c1cccc(c1)-c1cc3nc(C)c([C@H](OC(C)(C)C)C(=O)O)c-2n3n1 [Example 20, (2S)-2-(tert-butoxy)-2-{25-fluoro-7, 13-dimethyl-16, 22-dioxa-3,4,6-triazahexacyclo[27.3.1.1^2,5.0^4,9.0^10,15.0^23,28]tetratriaconta-1(33),2,5(34),6,8,10,12,14, 23(28),24,26,29,31-tridecaen-8-yl}acetic acid] | 2780 nM
Cc1nc2cc3nn2c(c1[C@H](OC(C)(C)C)C(=O)O)-c1ccc2c(c1)C(CCO2)OCCCCCOc1cc(F)ccc1-c1cccc-3c1 (stereo partly drawn) [Example 21, (2S)-2-(tert-Butoxy)-2-{18-fluoro-4-methyl-21,27,31-trioxa-5,7,8-triazaheptacyclo[26.6.2.1^6,9.1^10,14.0^2,7.0^15,20.0^32,36]octatriaconta-1(34),2,4,6(38),8,10(37),11,13,15(20),16,18,32,35-tridecaen-3-yl}acetic acid] | 695 nM
Cc1nc2cc3nn2c(c1[C@H](OC(C)(C)C)C(=O)O)-c1ccc2c(c1)C(CCO2)OCCCCCCOc1cc(F)ccc1-c1cccc-3c1 (stereo partly drawn) [Example 22, (2S)-2-(tert-butoxy)-2-{18-fluoro-4-methyl-21,28,32-trioxa-5,7,8-triazaheptacyclo[27.6.2.1^6,9.1^10,14.0^2,7.0^15,20.0^33,37]nonatriaconta-1(35),2,4,6(39),8,10(38),11,13,15(20),16,18,33,36-tridecaen-3-yl}acetic acid] | 1440 nM
